Measurements taken from patent publication US20050070511A1, “2-methylene-19-nor-vitamin D2 compounds” (Wisconsin Alumni Research Foundation, priority 2003, published 2005).

Legend:
[1] = system: Male, weanling Sprague-Dawley rats; experiment: Intestinal calcium transport in vitamin D-deficient rats; format: in vivo, rat; conditions: for Activity in stimulating intestinal calcium transport compared with 1α,25-dihydroxyvitamin D3: FIG. 3, in words; for Intestinal Calcium Transport (S/M): rats on low Ca diet, i.p. daily, average ± SE from 5 animals
Protocol: (§1) Male, weanling Sprague-Dawley rats were placed on Diet 11 (0.47% Ca)+AEK for 11 days, followed by Diet 11 (0.02% Ca)+AEK for 31 days. Dosing (i.p.) began 7 days prior to sacrifice. Doses were given on a daily basis, 24 hours apart. The first 10 cm of the intestine was collected for gut transport studies and serum was collected for bone Ca mobilization analysis. The results are reported in TABLE 1 and illustrated in the graph of FIGS. 3 and 4.

[2] = system: Male, weanling Sprague-Dawley rats; experiment: Serum calcium (bone calcium mobilization) in vitamin D-deficient rats; format: in vivo, rat; conditions: for Mobilization of calcium from bone compared with 1α,25-dihydroxyvitamin D3: FIG. 4, in words; for Serum Calcium (bone calcium mobilization): rats on low Ca diet, i.p. daily, average ± SE from 5 animals
Protocol: as §1
The in vivo tests of serum calcium of rats on a zero calcium diet provides an insight into […] or bone activity of the 2-methylene-24(S) and 24(R) derivatives of 19-nor-1α,25-dihydroxyvitamin D2. […] At the same time, the activity of the 2-methylene-24(S) and 24(R) derivatives of 19-nor-1α,25-dihydroxyvitamin D2 on intestinal calcium transport is approximately equal to that of 1,25-(OH)2D3 (FIG. 3).

[3] = target: T1, vitamin D pig intestinal nuclear receptor (Sus scrofa, UniProt A3RGC1); experiment: Competitive binding of [3H]-1α,25-(OH)2-D3 to the porcine intestinal vitamin D receptor; conditions: FIG. 1, in words
T1 construct: the vitamin D pig intestinal nuclear receptor; from tissue; host or cells: pig intestine (nuclear receptor preparation)
T1 sequence (A3RGC1 1-427): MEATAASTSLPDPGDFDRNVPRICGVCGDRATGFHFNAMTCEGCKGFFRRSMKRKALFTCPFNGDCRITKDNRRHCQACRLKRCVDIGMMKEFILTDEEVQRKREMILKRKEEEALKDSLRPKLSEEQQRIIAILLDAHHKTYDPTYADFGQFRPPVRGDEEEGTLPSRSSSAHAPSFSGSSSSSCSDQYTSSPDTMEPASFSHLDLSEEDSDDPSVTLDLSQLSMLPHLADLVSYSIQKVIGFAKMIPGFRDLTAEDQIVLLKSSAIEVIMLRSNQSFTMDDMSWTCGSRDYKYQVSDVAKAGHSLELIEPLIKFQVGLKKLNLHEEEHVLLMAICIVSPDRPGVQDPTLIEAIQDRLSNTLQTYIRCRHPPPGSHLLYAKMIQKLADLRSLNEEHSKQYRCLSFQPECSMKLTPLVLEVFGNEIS
Protocol: FIG. 1 is a graph illustrating the relative activity of 2-methylene-19-nor-24(S)-20(R)-1α,25-dihydroxyvitamin D2, 2-methylene-19-nor-24(R)-20(R)-1α,25-dihydroxyvitamin D2 and 1α,25-dihydroxyvitamin D3 to compete for binding of [^3H]-1α,25-(OH)2-D3 to the vitamin D pig intestinal nuclear receptor.
Competitive binding of the analogs to the porcine intestinal receptor was carried out by the method described by Dame et al. (Biochemistry 25, 4523-4534, 1986).

[4] = system: HL-60 cells; experiment: Differentiation of HL-60 promyelocytes into monocytes; format: cell-based; conditions: FIG. 2, in words
Protocol: FIG. 2 is a graph illustrating the percent HL-60 cell differentiation as a function of the concentration of 2-methylene-19-nor-24(S)-20(R)-1α,25-dihydroxyvitamin D2, 2-methylene-19-nor-24(R)-20(R)-1α,25-dihydroxyvitamin D2, and 1α,25-dihydroxyvitamin D3.
The differentiation of HL-60 promyelocytic into monocytes was determined as described by Ostrem et al. (J. Biol. Chem. 262, 14164-14171, 1987).

Binding to the vitamin D receptor compared with 1,25(OH)2D3 [3] | Compound | Activity in stimulating intestinal calcium transport compared with 1α,25-dihydroxyvitamin D3 [1] | Intestinal Calcium Transport (S/M) ([1]; 130 pmol/day/7 days) | Intestinal Calcium Transport (S/M) ([1]; 260 pmol/day/7 days) | Mobilization of calcium from bone compared with 1α,25-dihydroxyvitamin D3 [2] | Serum Calcium (bone calcium mobilization) ([2]; 130 pmol/day/7 days) [mg/100 mL] | Serum Calcium (bone calcium mobilization) ([2]; 260 pmol/day/7 days) [mg/100 mL] | HL-60 differentiation potency compared with 1,25(OH)2D3 [4]
more active than 1,25(OH)2D3 | C=C1[C@H](O)CC(=C/C=C2\CCC[C@@]3(C)C2CCC3[C@H](C)/C=C/[C@@H](C)C(C)(C)O)C[C@H]1O (stereo partly drawn) [(20R,24R)D2, (20R,24R)-1α,25-dihydroxy-2-methylene-19-nor-vitamin D2] | activity about the same as that of 1α,25-dihydroxyvitamin D3 | 12.2 ± 1.22 | 11.58 ± 0.66 | minimal activity on bone | 4.5 ± 0.05 | 5.02 ± 0.14 | significantly more potent than 1,25(OH)2D3
more active than 1,25(OH)2D3 | C=C1[C@H](O)CC(=C/C=C2\CCC[C@@]3(C)C2CCC3[C@H](C)/C=C/[C@H](C)C(C)(C)O)C[C@H]1O (stereo partly drawn) [(20R,24S)D2, (20R,24S)-1α,25-dihydroxy-2-methylene-19-nor-vitamin D2] | activity about the same as that of 1α,25-dihydroxyvitamin D3 | 11.62 ± 0.69 | 11.14 ± 0.74 | minimal activity on bone | 4.7 ± 0.13 | 5.04 ± 0.14 | significantly more potent than 1,25(OH)2D3
 | C=C1/C(=C\C=C2/CCC[C@]3(C)[C@@H]([C@H](C)CCCC(C)(C)O)CC[C@@H]23)C[C@@H](O)C[C@@H]1O [1,25-(OH)2D3, 1α,25-dihydroxyvitamin D3, reference compound] |  |  | 12.54 ± 1.83 |  |  | 5.72 ± 0.14 | 
